pIC50: −log10 of the molar value.
Tests used:
[1] = biological target: T1, mineralocorticoid receptor (MR) (Rattus norvegicus, UniProt P22199); experiment: In vitro binding to mineralocorticoid receptor (MR), displacement of tritiated aldosterone; settings: read-out: Mineralocorticoid receptor Antagonist activity IC50
T1 sequence (P22199 1-981): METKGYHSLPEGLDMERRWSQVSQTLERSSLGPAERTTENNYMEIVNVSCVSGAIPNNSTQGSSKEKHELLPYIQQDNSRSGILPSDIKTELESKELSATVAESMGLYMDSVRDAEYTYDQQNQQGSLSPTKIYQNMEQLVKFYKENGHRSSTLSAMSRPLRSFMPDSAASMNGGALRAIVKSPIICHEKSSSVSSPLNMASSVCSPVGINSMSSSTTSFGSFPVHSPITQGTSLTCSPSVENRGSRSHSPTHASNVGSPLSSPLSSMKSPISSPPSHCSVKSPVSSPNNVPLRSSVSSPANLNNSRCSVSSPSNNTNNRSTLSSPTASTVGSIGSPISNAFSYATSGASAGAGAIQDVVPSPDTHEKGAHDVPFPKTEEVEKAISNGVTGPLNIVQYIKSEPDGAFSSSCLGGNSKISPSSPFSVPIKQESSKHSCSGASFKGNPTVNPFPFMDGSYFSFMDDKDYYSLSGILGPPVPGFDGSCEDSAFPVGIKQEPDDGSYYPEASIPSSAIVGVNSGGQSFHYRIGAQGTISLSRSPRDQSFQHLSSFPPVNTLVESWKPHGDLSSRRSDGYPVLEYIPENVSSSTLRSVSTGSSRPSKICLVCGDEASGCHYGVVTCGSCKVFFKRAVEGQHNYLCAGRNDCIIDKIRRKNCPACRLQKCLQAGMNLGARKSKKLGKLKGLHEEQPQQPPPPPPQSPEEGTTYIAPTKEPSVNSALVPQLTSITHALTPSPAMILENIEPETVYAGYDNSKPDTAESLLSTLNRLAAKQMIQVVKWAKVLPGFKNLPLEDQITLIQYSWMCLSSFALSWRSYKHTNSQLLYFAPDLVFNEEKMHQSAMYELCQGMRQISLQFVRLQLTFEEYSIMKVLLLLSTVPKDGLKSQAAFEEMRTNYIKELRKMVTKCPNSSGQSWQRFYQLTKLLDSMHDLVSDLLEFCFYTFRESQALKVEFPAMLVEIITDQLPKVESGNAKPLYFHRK
Text: In vitro binding to the mineralocorticoid receptor (MR) was essentially carried out as reported in the literature (C. E. Gomez-Sanchez and E. P. Gomez-Sanchez, Endocrinology 113 (1983) 1004-1009, Z. S. Krozowski and J. W. Funder, Proc. Natl. Acad. Sci. USA 80 (1983) 6056-; J. H. M. H. Reul and E. R. de Kloet, Endocrinology 117 (1985) 2505-2511; K. E. Sheppard and J. W. Funder, J. Steroid Biochem. 28 (1987) 737-742).
Male Wistar rats Were adrenalectomised and perfused with cold saline after 3 days of survival. Kidneys and hippocampi, respectively, were rapidly dissected and homogenized. A cylosolic fraction was prepared by centrifugation.
Unlabeled RU 28362 (10 nM), a specific GR binder, was added for saturating glucocorticoid receptors. Compounds to be tested, dissolved in DMF and diluted with water to obtain the required concentration, were added in an increasing concentration range (1.0-1000 nM) and allowed to incubate for 3 h. Incubations were terminated by adding dextran-coated charcoal suspension, followed by centrifugation. The supernatant was assayed with a scintillation counter for unbound labelled ligand.

Row | Structure (SMILES) | pIC50 [1] | melting point [°C]
1 | CC[C@H]1CC[C@H]2[C@@H]3CCC4=CC(=O)C=C[C@]4(C)[C@H]3[C@@H](O)C[C@]12C [synthetic example 14, (11β)-11-hydroxypregna-1,4-dien-3-one] | 9.92 | –
2 | C=C(C)[C@H]1CC[C@H]2[C@@H]3C=CC4=CC(=O)CC[C@]4(C)[C@H]3[C@@H](O)C[C@]12C | – | 153 to 155
3 | C[C@]12C[C@H](O)[C@H]3[C@@H](CCC4=CC(=O)CC[C@@]43C)[C@@H]1CC[C@@H]2C(=O)CO [Corticosterone, reference compound] | 8.30 | –

Second part, the compound after the results:

Row | pIC50 [1] | melting point [°C] | Structure (SMILES)
4 | 8.22 | – | CC(=O)S[C@@H]1CC2=CC(=O)CC[C@]2(C)[C@H]2CC[C@@]3(C)[C@@H](CC[C@@]34CCC(=O)O4)[C@H]12 [Spironolactone, reference compound]
5 | 9.36 | – | C=C(C)[C@H]1CC[C@H]2[C@@H]3CCC4=CC(=O)CC[C@]4(C)[C@H]3[C@@H](O)C[C@]12C [synthetic example 1, (11β)-11-hydroxy-20-methylpregna-4,20-dien-3-one]

Reference: patent US20100120736A1, “Mineralocorticoid Receptor Antagonists” (N.V. ORGANON, priority 2007, published 2010)
